Results taken from ChEMBL document CHEMBL5614421, “Structure-activity relationship study of Pseudellone C as anti-glioma agents by targeting TNF/TNFR signaling pathway” (Eur J Med Chem, 2024).
Values belong to the molecule of their own block, whether it stands above or below them.

Legend:
U-87 MG [1] = assay: Antiproliferative activity against human U-87 MG cells assessed as inhibition of cell growth incubated for 68 hrs by CCK-8 assay; type: functional, cell-based, U-87MG ATCC
LN-229 [2] = assay: Antiproliferative activity against human LN-229 cells assessed as inhibition of cell growth incubated for 68 hrs by CCK-8 assay; type: functional, cell-based; conditions: LN-229, 68 h
U-87 MG [3] = assay: Induction of apoptosis in human U-87 MG cells assessed as viable cells at 5 uM incubated for 24 hrs by Annexin V-APC/7-AAD staining based flow cytometric analysis (reference value: 85 %); type: functional, U-87MG ATCC; conditions: read-out: Activity
U-87 MG [4] = assay: Induction of apoptosis in human U-87 MG cells assessed as early apoptotic cells at 5 uM incubated for 24 hrs by Annexin V-APC/7-AAD staining based flow cytometric analysis (reference value: 3.44 %); type: functional, U-87MG ATCC
U-87 MG [5] = assay: Induction of apoptosis in human U-87 MG cells assessed as late apoptotic cells at 5 uM incubated for 24 hrs by Annexin V-APC/7-AAD staining based flow cytometric analysis (reference value: 7.7 %); type: functional, U-87MG ATCC
U-87 MG [6] = assay: Induction of apoptosis in human U-87 MG cells assessed as necrotic cells at 5 uM incubated for 24 hrs by Annexin V-APC/7-AAD staining based flow cytometric analysis (reference value: 3.85 %); type: functional, U-87MG ATCC
LN-229 [7] = assay: Induction of apoptosis in human LN-229 cells assessed as viable cells at 5 uM incubated for 24 hrs by Annexin V-APC/7-AAD staining based flow cytometric analysis (reference value: 92.3 %); type: functional; conditions: read-out: Activity
LN-229 [8] = assay: Induction of apoptosis in human LN-229 cells assessed as early apoptotic cells at 5 uM incubated for 24 hrs by Annexin V-APC/7-AAD staining based flow cytometric analysis (reference value: 0.91 %); type: functional
LN-229 [9] = assay: Induction of apoptosis in human LN-229 cells assessed as late apoptotic cells at 5 uM incubated for 24 hrs by Annexin V-APC/7-AAD staining based flow cytometric analysis (reference value: 4.86 %); type: functional
LN-229 [10] = assay: Induction of apoptosis in human LN-229 cells assessed as necrotic cells at 5 uM incubated for 24 hrs by Annexin V-APC/7-AAD staining based flow cytometric analysis (reference value: 1.95 %); type: functional

SMILES: CC(C)CCCOC(=O)[C@H](Cc1c[nH]c2ccccc12)NC(=O)C(C)(c1c[nH]c2ccccc12)c1c[nH]c2ccccc12
IC50 (U-87 MG [1]): 8.3 µM
IC50 (LN-229 [2]): 12.2 µM

SMILES: COCCCNC(=O)[C@H](Cc1c[nH]c2ccccc12)NC(=O)C(C)(c1c[nH]c2ccccc12)c1c[nH]c2ccccc12
IC50 (U-87 MG [1]): > 50 µM
IC50 (LN-229 [2]): 19.4 µM

SMILES: CCCCCCCCCCOC(=O)[C@H](Cc1c[nH]c2ccccc12)NC(=O)C(C)(c1c[nH]c2ccccc12)c1c[nH]c2ccccc12
IC50 (U-87 MG [1]): 19.9 µM
IC50 (LN-229 [2]): 13.1 µM

SMILES: CC(C(=O)N[C@@H](Cc1c[nH]c2ccccc12)C(=O)NCC1CCOCC1)(c1c[nH]c2ccccc12)c1c[nH]c2ccccc12
IC50 (U-87 MG [1]): > 50 µM
IC50 (LN-229 [2]): > 50 µM

SMILES: CCCCCCOC(=O)[C@H](Cc1c[nH]c2ccccc12)NC(=O)C(C)(c1c[nH]c2ccccc12)c1c[nH]c2ccccc12
IC50 (U-87 MG [1]): 7.54 µM
IC50 (LN-229 [2]): 12.5 µM

SMILES: CCCCCCCCCCNC(=O)[C@H](Cc1c[nH]c2ccccc12)NC(=O)C(C)(c1c[nH]c2ccccc12)c1c[nH]c2ccccc12
IC50 (U-87 MG [1]): 7.23 µM
IC50 (LN-229 [2]): 6.07 µM

SMILES: CC(C)CCOC(=O)[C@H](Cc1c[nH]c2ccccc12)NC(=O)C(C)(c1c[nH]c2ccccc12)c1c[nH]c2ccccc12
IC50 (U-87 MG [1]): 17.3 µM
IC50 (LN-229 [2]): 20.4 µM

SMILES: CCCCCCCCCOC(=O)[C@H](Cc1c[nH]c2ccccc12)NC(=O)C(C)(c1c[nH]c2ccccc12)c1c[nH]c2ccccc12
IC50 (U-87 MG [1]): 12.3 µM
IC50 (LN-229 [2]): 12.6 µM

SMILES: CC(C(=O)N[C@@H](Cc1c[nH]c2ccccc12)C(=O)NC[C@@H]1CCCO1)(c1c[nH]c2ccccc12)c1c[nH]c2ccccc12
IC50 (U-87 MG [1]): > 50 µM
IC50 (LN-229 [2]): 23.5 µM

SMILES: CCCCCCCOC(=O)[C@H](Cc1c[nH]c2ccccc12)NC(=O)C(C)(c1c[nH]c2ccccc12)c1c[nH]c2ccccc12
IC50 (U-87 MG [1]): 10.7 µM
IC50 (LN-229 [2]): 10.5 µM

SMILES: COC(=O)[C@H](Cc1c[nH]c2ccccc12)NC(=O)C(C)(c1cn(C)c2ccccc12)c1cn(C)c2ccccc12
IC50 (U-87 MG [1]): 59.3 µM
IC50 (LN-229 [2]): > 50 µM

SMILES: CC(C(=O)N[C@@H](Cc1c[nH]c2ccccc12)C(=O)OCC1CCOCC1)(c1c[nH]c2ccccc12)c1c[nH]c2ccccc12
IC50 (U-87 MG [1]): 29.2 µM
IC50 (LN-229 [2]): > 50 µM

SMILES: COC(=O)[C@H](Cc1c[nH]c2ccccc12)NC(=O)C(C)(c1c[nH]c2cccc(F)c12)c1c[nH]c2cccc(F)c12
IC50 (U-87 MG [1]): 22.1 µM
IC50 (LN-229 [2]): 10.8 µM

SMILES: CCCCCCCCNC(=O)[C@H](Cc1c[nH]c2ccccc12)NC(=O)C(C)(c1c[nH]c2ccccc12)c1c[nH]c2ccccc12
IC50 (U-87 MG [1]): 10.7 µM
IC50 (LN-229 [2]): 16.1 µM

SMILES: CCCCCCCCCCCCCCNC(=O)[C@H](Cc1c[nH]c2ccccc12)NC(=O)C(C)(c1c[nH]c2ccccc12)c1c[nH]c2ccccc12
IC50 (U-87 MG [1]): > 50 µM
IC50 (LN-229 [2]): > 50 µM

SMILES: CCCCCCCCCCCCNC(=O)[C@H](Cc1c[nH]c2ccccc12)NC(=O)C(C)(c1c[nH]c2ccccc12)c1c[nH]c2ccccc12
IC50 (U-87 MG [1]): 12 µM
IC50 (LN-229 [2]): 10.8 µM

SMILES: CC(C(=O)N[C@@H](Cc1c[nH]c2ccccc12)C(=O)NC[C@H]1CCCO1)(c1c[nH]c2ccccc12)c1c[nH]c2ccccc12
IC50 (U-87 MG [1]): > 50 µM
IC50 (LN-229 [2]): 21.3 µM

SMILES: CC(C(=O)N[C@@H](Cc1c[nH]c2ccccc12)C(=O)NCc1ccco1)(c1c[nH]c2ccccc12)c1c[nH]c2ccccc12
IC50 (U-87 MG [1]): 46.1 µM
IC50 (LN-229 [2]): 17.9 µM

SMILES: COC(=O)[C@H](Cc1c[nH]c2ccccc12)NC(=O)C(C)(c1c[nH]c2c(F)cccc12)c1c[nH]c2c(F)cccc12
IC50 (U-87 MG [1]): 15 µM
IC50 (LN-229 [2]): 5.52 µM

SMILES: CCCCCNC(=O)[C@H](Cc1c[nH]c2ccccc12)NC(=O)C(C)(c1c[nH]c2ccccc12)c1c[nH]c2ccccc12
IC50 (U-87 MG [1]): 19.4 µM
IC50 (LN-229 [2]): 18.8 µM

SMILES: FC(F)(F)c1nnc2c(Sc3ccccc3)nc3ccc(Cl)cc3n12
viability at 5 µM (U-87 MG [3]): 82.7%
Activity (U-87 MG [4]): 10%
Activity (U-87 MG [5]): 5.1%
Activity (U-87 MG [6]): 2.24%
viability at 5 µM (LN-229 [7]): 76.1%
Activity (LN-229 [8]): 14.6%
Activity (LN-229 [9]): 8.42%
Activity (LN-229 [10]): 0.97%

SMILES: COC(=O)[C@H](Cc1c[nH]c2ccccc12)NC(=O)C(C)(c1c[nH]c2cc(Br)ccc12)c1c[nH]c2cc(Br)ccc12
IC50 (U-87 MG [1]): 4.81 µM
IC50 (LN-229 [2]): 6.62 µM

SMILES: CCCCCCCCCCCCOC(=O)[C@H](Cc1c[nH]c2ccccc12)NC(=O)C(C)(c1c[nH]c2ccccc12)c1c[nH]c2ccccc12
IC50 (U-87 MG [1]): 54.9 µM
IC50 (LN-229 [2]): > 50 µM

SMILES: CCCCCCCCCNC(=O)[C@H](Cc1c[nH]c2ccccc12)NC(=O)C(C)(c1c[nH]c2ccccc12)c1c[nH]c2ccccc12
IC50 (U-87 MG [1]): 9.68 µM
IC50 (LN-229 [2]): 7.17 µM

SMILES: Cn1nnc2c(C(N)=O)ncn2c1=O [TEMOZOLOMIDE]
IC50 (U-87 MG [1]): 113 µM
IC50 (LN-229 [2]): > 500 µM

SMILES: COC(=O)[C@H](Cc1c[nH]c2ccccc12)NC(=O)C(C)(c1c[nH]c2ccc(C(F)(F)F)cc12)c1c[nH]c2ccc(C(F)(F)F)cc12
IC50 (U-87 MG [1]): 7.74 µM
IC50 (LN-229 [2]): 5.52 µM

SMILES: Cc1ccc(CNC(=O)[C@H](Cc2c[nH]c3ccccc23)NC(=O)C(C)(c2c[nH]c3ccccc23)c2c[nH]c3ccccc23)cc1
IC50 (U-87 MG [1]): 41.3 µM
IC50 (LN-229 [2]): > 50 µM

SMILES: COC(=O)[C@H](Cc1c[nH]c2ccccc12)NC(=O)C(C)(c1c[nH]c2c(Br)cccc12)c1c[nH]c2c(Br)cccc12
IC50 (U-87 MG [1]): 7.34 µM
IC50 (LN-229 [2]): 8.71 µM

SMILES: CCCCCCNC(=O)[C@H](Cc1c[nH]c2ccccc12)NC(=O)C(C)(c1c[nH]c2ccccc12)c1c[nH]c2ccccc12
IC50 (U-87 MG [1]): 16 µM
IC50 (LN-229 [2]): 25.5 µM

More lines, main results first:

IC50 (U-87 MG [1]): 21.7 µM
SMILES: CCCCOC(=O)[C@H](Cc1c[nH]c2ccccc12)NC(=O)C(C)(c1c[nH]c2ccccc12)c1c[nH]c2ccccc12
IC50 (LN-229 [2]): 20.2 µM

IC50 (U-87 MG [1]): 46.3 µM
SMILES: CNC(=O)[C@H](Cc1c[nH]c2ccccc12)NC(=O)C(C)(c1c[nH]c2ccccc12)c1c[nH]c2ccccc12
IC50 (LN-229 [2]): 23.2 µM

IC50 (U-87 MG [1]): 23.5 µM
SMILES: CC(C)OC(=O)[C@H](Cc1c[nH]c2ccccc12)NC(=O)C(C)(c1c[nH]c2ccccc12)c1c[nH]c2ccccc12
IC50 (LN-229 [2]): > 50 µM

IC50 (U-87 MG [1]): > 50 µM
SMILES: CCCCCCCNC(=O)C(C)(c1c[nH]c2ccccc12)c1c[nH]c2ccccc12
IC50 (LN-229 [2]): > 50 µM

IC50 (U-87 MG [1]): > 50 µM
SMILES: CC(C(=O)N[C@@H](Cc1c[nH]c2ccccc12)C(=O)NCC1CC1)(c1c[nH]c2ccccc12)c1c[nH]c2ccccc12
IC50 (LN-229 [2]): > 50 µM

IC50 (U-87 MG [1]): > 50 µM
SMILES: CC(C(=O)O)(c1c[nH]c2ccccc12)c1c[nH]c2ccccc12
IC50 (LN-229 [2]): > 50 µM

IC50 (U-87 MG [1]): > 50 µM
SMILES: CC(C(=O)N[C@@H](Cc1c[nH]c2ccccc12)C(=O)NC1CC1)(c1c[nH]c2ccccc12)c1c[nH]c2ccccc12
IC50 (LN-229 [2]): > 50 µM

IC50 (U-87 MG [1]): 17 µM
SMILES: COC(=O)[C@H](Cc1c[nH]c2ccccc12)NC(=O)C(C)(c1c[nH]c2ccccc12)c1c[nH]c2ccccc12
IC50 (LN-229 [2]): 36.9 µM

IC50 (U-87 MG [1]): > 50 µM
SMILES: CC(C(=O)N[C@@H](Cc1c[nH]c2ccccc12)C(=O)O)(c1c[nH]c2ccccc12)c1c[nH]c2ccccc12
IC50 (LN-229 [2]): > 50 µM

IC50 (U-87 MG [1]): > 50 µM
SMILES: CCCCCCNC(=O)C(C)(c1c[nH]c2ccccc12)c1c[nH]c2ccccc12
IC50 (LN-229 [2]): > 50 µM

IC50 (U-87 MG [1]): 168 µM
SMILES: CNC(=O)[C@@H](NC(=O)C(C)(c1c[nH]c2ccccc12)c1c[nH]c2ccccc12)C(=O)c1c[nH]c2ccccc12
IC50 (LN-229 [2]): > 100 µM

IC50 (U-87 MG [1]): 16.9 µM
SMILES: CC(C)CCNC(=O)[C@H](Cc1c[nH]c2ccccc12)NC(=O)C(C)(c1c[nH]c2ccccc12)c1c[nH]c2ccccc12
IC50 (LN-229 [2]): 12.7 µM

IC50 (U-87 MG [1]): > 50 µM
SMILES: CC(C)CNC(=O)[C@H](Cc1c[nH]c2ccccc12)NC(=O)C(C)(c1c[nH]c2ccccc12)c1c[nH]c2ccccc12
IC50 (LN-229 [2]): > 50 µM

IC50 (U-87 MG [1]): > 50 µM
SMILES: COc1ccc(CNC(=O)C(C)(c2c[nH]c3ccccc23)c2c[nH]c3ccccc23)cc1
IC50 (LN-229 [2]): > 50 µM

IC50 (U-87 MG [1]): > 50 µM
SMILES: Cc1ccc(CNC(=O)C(C)(c2c[nH]c3ccccc23)c2c[nH]c3ccccc23)cc1
IC50 (LN-229 [2]): > 50 µM

IC50 (U-87 MG [1]): 36.4 µM
SMILES: C#CCNC(=O)[C@H](Cc1c[nH]c2ccccc12)NC(=O)C(C)(c1c[nH]c2ccccc12)c1c[nH]c2ccccc12
IC50 (LN-229 [2]): 17.4 µM
